Literature values in patent US6555712B2, “Process for the preparation of diorganotrisulfide” (Indian Institute of Technology, priority 2001, dated 2003).
Like-named read-outs stand apart in the source and are kept apart here.

Experiments:
[1] = tested on: Giardia Lamblia; conditions: in vitro
[2] = tested on: human neoplastic (A549) lung cells; conditions: 10 micromolar
[3] = tested on: macrophages; conditions: 1-100 micrograms/ml
[4] = tested on: macrophages
[5] = tested on: Tribolium castaneum (Herbst); design: egg hatching: dose or concentration left out as unconfirmed
[6] = tested on: canine mammary tumor cells (CMT-13)
[7] = tested on: T lymphocytes
[8] = tested on: Sitophilus zeamais (Motschulsky)
[9] = tested on: HEFL-12, human embryo fibroblast; conditions: HEFL-12 cell line, in vitro
[10] = tested on: MASEF, Mastomys natalensis embryo fibroblast; conditions: MASEF cell line, in vitro
[11] = tested on: cultured human neoplastic (A549) lung cells; conditions: 1 microM for 24 hours
[12] = tested on: Trypanosoma brucei brucei, T.b. rhodesiense, T.b. gambiense, T. evansi, T. congolense and T. equiperdum; conditions: in vitro; one range for six Trypanosoma species
[13] = tested on: intracellular Ca2+ in A549 cells
[14] = tested on: human nonneoplastic (MRC-5) lung cells; conditions: 10 microM
[15] = tested on: whole blood platelet-aggregation; conditions: DATS present in the steam-distilled component of garlic extract
[16] = tested on: Entamoeba histolytica; conditions: in vitro
[17] = tested on: tumor derived immunosuppressive factors produced by S180 cells and Ehrlich ascitic cancer cells

In the case of `C=CCSSSCC=C` [DATS, Diallyltrisulfide], the “IC50 (concentration which inhibits metabolism or growth of parasites by 50%)” value [1] is given as 14 micrograms/ml, the “reduction of A549 growth” value [2] is given as 47% and the “production of NO by macrophages” value [3] is given as “can inhibit”. The “production of hydrogen peroxide (H2O2) by macrophages” value [4] was “enhance”, the egg hatching ([5]; T. castaneum) was “totally suppressed” and the feeding deterrence ([5]; T. castaneum adults, 0.75 mg/g food) was 85%. For the same compound, the “contact and fumigant toxicities” value ([5]; T. castaneum adults, comparison with methylallyl disulfide) was “greater than that of methylallyl disulfide”, the feeding deterrence index ([5]; T. castaneum larvae, 2.98 mg/g food) was 51% and the “larval and adult emergence” value ([5]; T. castaneum, at 0.08 mg/cm2) was “totally suppressed”. For the same compound, the nutritional indices ([5]; all of the insects tested (T. castaneum)) was “significantly reduced”, the “growth of canine mammary tumor cells (CMT-13)” value [6] was “markedly inhibits” and the “effect on activation of T lymphocytes by Con A” value ([7]; 3.125-12.5 micrograms/ml) was “augmented”. The “effect on T cell activation” value ([7]; high concentration (50 micrograms/ml)) was “inhibitory effect”, the feeding deterrence index ([8]; S. zeamais adults, 2.98 mg/g food) was 27% and the “contact and fumigant toxicities” value ([8]; S. zeamais adults, comparison with methylallyl disulfide) was “greater than that of methylallyl disulfide”. The nutritional indices ([8]; all of the insects tested (S. zeamais)) was “significantly reduced”, the maximum tolerated concentration [9] was 25 micrograms/ml and the maximum tolerated concentration [10] was 25 micrograms/ml. The “apoptosis, as indicated by increased DNA fragmentation” value [11] was “significantly induced apoptosis”, the “IC50 (concentration which inhibits metabolism or growth of parasites by 50%)” value [12] was 0.8-5.5 micrograms/ml and the “intracellular Ca2+ in A549 cells” value ([13]; 10 microM, during the first four hours after treatment) was “marked and progressive increase”. For the same compound, the “intracellular Ca2+ in A549 cells after refeeding the medium without DATS” value ([13]; after refeeding medium without DATS) was “returned to near control levels within one hour”, the MRC-5 cell growth [14] was “did not alter” and the “Inhibition of whole blood platelet-aggregation” value [15] was “high”. For the same compound, the “IC50 (concentration which inhibits metabolism or growth of parasites by 50%)” value [16] was 59 micrograms/ml and the “inhibition by tumor derived immunosuppressive factors of the activation of T cells (inhibitory rate)” value [17] was “reduce the inhibitory rate significantly”.
In the case of `C=CCSSC` [Methylallyl disulfide, methylallyl disulfide, reference compound], the “growth rate, food consumption, and food utilization of adults” value ([5]; T. castaneum adults) is listed as “significantly decreased”, the feeding deterrence index ([5]; T. castaneum adults, 1.52 mg/g food) is listed as 44% and the “nutritional indices of T. castaneum larvae” value ([5]; T. castaneum larvae) is listed as “did not affect”. The “growth rate, food consumption, and food utilization of adults” value ([8]; S. zeamais adults) was “significantly decreased” and the feeding deterrence index ([8]; S. zeamais adults, 6.08 mg/g food) was 44%.
